Data from US8835467B2, “SIR2 regulation” (Albert Einstein College of Medicine of Yeshiva University, priority 2003, dated 2014).

Key:
[1] = molecular target: Yeast Sir2 (Saccharomyces cerevisiae, UniProt P06700); assay: Sir2 catalyzed deacetylation of H4 N-terminal peptide; assay type: biochemical
Procedure: Measurements were performed by methods described in Sauve and Schramm (2003) with the H4N-terminal peptide (AGG(AcK)GG(AcK)GMG(AcK)VGA(AcK)RHSC) (Imai et al., 2000) as substrate.

[2] = molecular target: T1, Yeast SIR2p (Saccharomyces cerevisiae, UniProt P06700); assay: SIR2 nicotinamide base-exchange assay (p53 peptide, HPLC/14C); assay type: biochemical; conditions: pH 7.6; read-out: Inhibition of exchange rate (%) yeast
T1 construct: made in house
Procedure: After 2 hours, aliquots of 10 μL removed at 0, 30, 60, 90 and 120 min. Each aliquot was combined with 50 μL 50 mM ammonium acetate pH 5.0 to quench and assayed by HPLC for deacetylation products and NAD^+. The chromatograms (260 nm) were obtained using 50 mM ammonium acetate pH 5.0 as eluant on a semi-preparative Waters C-18 column (2.0 mL/min flow rate). Peaks for ADPR and 3′-O-Acetyl-ADPR were quantified by integration. The peak for NAD^+ was collected and radiation counted.

[3] = tested on: Sir2-dependent transcriptional silencing at the rDNA locus; assay: rDNA locus URA3 silencing on FOA-containing media; assay type: cell-based, yeast; conditions: RDN1::URA3 strain; 25 mM isonicotinamide
Procedure: Ten-fold serial dilutions of yeast strains were spotted onto control (YPD) or selective media (vanLeeuwen and Gottschling, 2002). The photographs were taken after 2 to 3 days incubation. […] Isogenic strains UCC4562 (DOT1) and UCC4554 (dot1Δ) (Singer et al., 1998) are shown in each panel (top and bottom rows, respectively). […] The phenotype of strain CCFY10028 (top row) is compared to an isogenic sir2 derivative (bottom row). The sir2 deletion strain was generated by PCR-mediated gene disruption using a Nat-MX selectable marker (Tong et al., 2004).
Sir2 also localizes to the nucleolus where it functions to propagate a specialized chromatin structure on the rDNA (Rusche at al., 2003). […] Thus, isonicotinamide increases the activity of Sir2 in vivo at all three types of silent loci.

Sequence of Yeast Sir2 (P06700 whole entry): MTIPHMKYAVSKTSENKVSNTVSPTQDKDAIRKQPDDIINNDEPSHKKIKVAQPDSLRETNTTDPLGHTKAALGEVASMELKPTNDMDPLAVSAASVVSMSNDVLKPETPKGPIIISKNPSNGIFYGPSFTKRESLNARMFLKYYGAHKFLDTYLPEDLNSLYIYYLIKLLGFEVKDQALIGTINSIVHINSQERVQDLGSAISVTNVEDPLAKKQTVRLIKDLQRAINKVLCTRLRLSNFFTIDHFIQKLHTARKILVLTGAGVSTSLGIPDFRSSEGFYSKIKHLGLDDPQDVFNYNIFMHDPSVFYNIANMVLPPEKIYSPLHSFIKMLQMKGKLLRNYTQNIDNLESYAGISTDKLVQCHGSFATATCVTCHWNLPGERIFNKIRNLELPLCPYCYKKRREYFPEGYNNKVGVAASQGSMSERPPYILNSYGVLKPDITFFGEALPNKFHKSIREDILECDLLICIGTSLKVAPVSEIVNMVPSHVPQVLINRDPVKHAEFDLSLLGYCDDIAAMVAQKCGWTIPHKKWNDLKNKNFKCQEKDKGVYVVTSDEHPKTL
T1 sequence (P06700 whole entry): as above

NC(=O)c1ccncc1 [Isonicotinamide]
increase of deacetylation activity ([1]; 125 μM [carbonyl-14C]nicotinamide, increasing isonicotinamide): ≤ 45% | effect on rates of deacetylation ([1]; isonicotinamide to 100 mM, absence of nicotinamide): do not substantially affect rates of deacetylation | inhibition at 42000 µM [2]: 40% | silencing at the rDNA locus (resistance to FOA) [3]: increases silencing at the rDNA locus
